We go through 26 compounds from US20100041642A1, “UREA INHIBITORS OF MAP KINASES” (LOCUS PHARMACEUTICALS, INC., priority 2008, published 2010).

Bounds are passed on as bounds.

p38, sequence (Q16539 whole entry, the tested form may be a part): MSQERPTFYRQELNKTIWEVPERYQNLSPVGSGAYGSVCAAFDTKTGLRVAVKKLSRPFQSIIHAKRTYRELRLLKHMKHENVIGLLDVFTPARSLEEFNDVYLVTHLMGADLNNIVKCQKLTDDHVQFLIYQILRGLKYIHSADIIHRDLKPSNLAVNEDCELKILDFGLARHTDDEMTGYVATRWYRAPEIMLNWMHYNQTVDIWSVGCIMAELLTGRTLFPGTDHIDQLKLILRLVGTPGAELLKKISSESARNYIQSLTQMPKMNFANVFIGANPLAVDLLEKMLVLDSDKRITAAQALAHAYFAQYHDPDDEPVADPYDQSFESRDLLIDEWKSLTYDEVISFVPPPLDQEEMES

This assay addresses p38 (Homo sapiens, UniProt Q16539). In words: Protein Kinase Assay (33P incorporation from γ-[33P]ATP into GST-ATF-2). It counts as biochemical. As to conditions: 2 nM p38, preincubated 20 min at 30° C.; 10 uM cold ATP, 2 uM GST-ATF2, 70 min; read-out: ACT. (Activity), IC50 category in Protein Kinase Assay. The protocol: Protein Kinase Assay. The protein kinase activity of p38 was determined by measuring the incorporation of ^33P from γ-[^33P]ATP into the GST-ATF-2 substrate, amino acids 19-96 (Upstate, N.Y. USA). The reactions were carried out in a final volume of 50 μL of 24 mM Tris-HCl buffer, pH 7.5, containing 13 mM MgCl2, 12% Glycerol, 2% DMSO, 2 mM DTT, […] of γ-[^33P]ATP (1000 Ci/mmol; 1 Ci=37 GBq) (GE Healthcare, Piscataway, N.J.), 10 uM cold ATP (GE Healthcare, Piscataway, N.J.), and 2 uM GST-ATF2. Compounds were preincubated with 2 nM p38 for 20 min at 30° C.; the reactions were initiated by the addition of GST-ATF2 and ATP and incubated for 70 min at 30° C. before being stopped by the addition of 10 μL of 600 mM phosphoric acid. The phosphorylated substrate was captured on phosphocellulose 96-well plate (Millipore MAPHNOB 10), washed with 100 mM phosphoric acid, and counted in a BeckmenCoulter LS6500 liquid scintillation counter. […] (Activity).
In general, IC50 refers to the midpoint of a concentration-inhibition curve. For the compound `Cc1ccc(NC(=O)Nc2cc(C(C)(C)C)oc2C(=O)N2CCN(C)C(=O)C2(C)C)cc1-c1ccc(CN2CCOCC2)cn1` [1-(5-tert-butyl-2-(2,2,4-trimethyl-3-oxopiperazine-1-carbonyl)furan-3-yl)-3-(4-methyl-3-(5-(morpholinomethyl)pyridin-2-yl)phenyl)urea], the half-maximal inhibitory concentration (IC50) is < 100 nM.

Regarding `CCc1ccc(-c2cc(NC(=O)Nc3cc(C(C)(C)C)sc3C(=O)N3CCN(C)C(=O)C3(C)C)ccc2C)cn1` [1-(5-tert-butyl-2-(2,2,4-trimethyl-3-oxopiperazine-1-carbonyl)thiophen-3-yl)-3-(3-(6-ethylpyridin-3-yl)-4-methylphenyl)urea], the concentration for half-maximal inhibition (IC50) is < 100 nM. As for `CCc1ccc(-c2cc(NC(=O)Nc3cc(C(C)(C)C)sc3C(=O)N3CCN(C)C(=O)C3(C)C)cc(F)c2C)cn1` [1-(5-tert-butyl-2-(2,2,4-trimethyl-3-oxopiperazine-1-carbonyl)thiophen-3-yl)-3-(3-(6-ethylpyridin-3-yl)-5-fluoro-4-methylphenyl)urea], the IC50 is < 100 nM.

Turning to `COc1ccc(-c2cc(NC(=O)Nc3cc(C(C)(C)C)sc3C(=O)N3CCN(C)C(=O)C3(C)C)ccc2C)cn1` [1-(5-tert-butyl-2-(2,2,4-trimethyl-3-oxopiperazine-1-carbonyl)thiophen-3-yl)-3-(3-(6-methoxypyridin-3-yl)-4-methylphenyl)urea], the half-maximal inhibitory concentration (IC50) is < 100 nM. The same measure for `COc1ccc(-c2cc(NC(=O)Nc3cc(C(C)(C)C)sc3C(=O)N3CCN(C)C(=O)C3(C)C)cc(F)c2C)cn1` [1-(5-tert-butyl-2-(2,2,4-trimethyl-3-oxopiperazine-1-carbonyl)thiophen-3-yl)-3-(3-fluoro-5-(6-methoxypyridin-3-yl)-4-methylphenyl)urea]: < 100 nM; for `Cc1ccc(NC(=O)Nc2cc(C(C)(C)C)sc2C(=O)N2CCN(C)C(=O)C2(C)C)cc1-c1ccc(CN2CCOCC2)nc1` [1-(5-tert-butyl-2-(2,2,4-trimethyl-3-oxopiperazine-1-carbonyl)thiophen-3-yl)-3-(4-methyl-3-(6-(morpholinomethyl)pyridin-3-yl)phenyl)urea]: < 100 nM. For the compound `Cc1ccc(NC(=O)Nc2cc(C(C)(C)C)sc2C(=O)N2CCN(C)C(=O)C2(C)C)cc1-c1ccc(N2CCOCC2)nc1` [1-(5-tert-butyl-2-(2,2,4-trimethyl-3-oxopiperazine-1-carbonyl)thiophen-3-yl)-3-(4-methyl-3-(6-morpholinopyridin-3-yl)phenyl)urea], the IC50 was < 100 nM. `Cc1ccc(NC(=O)Nc2cc(C(C)(C)C)oc2C(=O)N2CCNC(=O)C2(C)C)cc1-c1ccc(OCCN(C)C)nc1` [1-(5-tert-butyl-2-(2,2-dimethyl-3-oxopiperazine-1-carbonyl)furan-3-yl)-3-(3-(6-(2-(dimethylamino)ethoxy)pyridin-3-yl)-4-methylphenyl)urea]: the IC50 was < 100 nM.

`Cc1ccc(NC(=O)Nc2cc(C(C)(C)C)sc2C(=O)N2CCNC(=O)C2(C)C)cc1-c1ccc(CN2CCOCC2)nc1` [1-(5-tert-butyl-2-(2,2-dimethyl-3-oxopiperazine-1-carbonyl)thiophen-2-yl)-3-(4-methyl-3-(6-(morpholinomethyl)pyridin-3-yl)phenyl)urea]: the half-maximal inhibitory concentration (IC50) is < 100 nM.

As for `Cc1ccc(-c2ccc(N3CCOCC3)cn2)cc1NC(=O)Nc1cc(C(C)(C)C)sc1C(=O)N1CCNC(=O)C1(C)C` [1-(5-tert-butyl-2-(2,2-dimethyl-3-oxopiperazine-1-carbonyl)thiophen-3-yl)-3-(2-methyl-5-(5-morpholinopyridin-2-yl)phenyl)urea], the half-inhibitory concentration (IC50) is < 100 nM. For the compound `COc1ccc(-c2cc(NC(=O)Nc3cc(C(C)(C)C)sc3C(=O)N3CCNC(=O)C3(C)C)ccc2C)cn1` [1-(5-tert-butyl-2-(2,2-dimethyl-3-oxopiperazine-1-carbonyl)thiophen-3-yl)-3-(3-(6-methoxypyridin-3-yl)-4-methylphenyl)urea], the IC50 was < 100 nM. Consider `Cc1cc(NC(=O)Nc2cc(C(C)(C)C)sc2C(=O)N2CCNC(=O)C2(C)C)cc(-c2ccc(N3CCOCC3)cn2)c1` [1-(5-tert-butyl-2-(2,2-dimethyl-3-oxopiperazine-1-carbonyl)thiophen-3-yl)-3-(3-methyl-5-(5-morpholinopyridin-2-yl)phenyl)urea], for which the half-maximal inhibitory concentration (IC50) was < 100 nM.

Take `Cc1ccc(NC(=O)Nc2cc(C(C)(C)C)sc2C(=O)N2CCNC(=O)C2(C)C)cc1-c1ccc(N2CCOCC2)cn1` [1-(5-tert-butyl-2-(2,2-dimethyl-3-oxopiperazine-1-carbonyl)thiophen-3-yl)-3-(4-methyl-3-(5-morpholinopyridin-2-yl)phenyl)urea]: the half-inhibitory concentration (IC50) was < 100 nM. Regarding `Cc1ccc(NC(=O)Nc2cc(C(C)(C)C)sc2C(=O)N2CCNC(=O)C2(C)C)cc1-c1ccc(N2CCOCC2)nc1` [1-(5-tert-butyl-2-(2,2-dimethyl-3-oxopiperazine-1-carbonyl)thiophen-3-yl)-3-(4-methyl-3-(6-morpholinopyridin-3-yl)phenyl)urea], the half-maximal inhibitory concentration (IC50) was < 100 nM. As for `CCN1CCN(C(=O)c2sc(C(C)(C)C)cc2NC(=O)Nc2ccc(C)c(-c3ccc(CN4CCOCC4)nc3)c2)C(C)(C)C1=O` [1-(5-tert-butyl-2-(4-ethyl-2,2-dimethyl-3-oxopiperazine-1-carbonyl)thiophen-3-yl)-3-(4-methyl-3-(6-(morpholinomethyl)pyridin-3-yl)phenyl)urea], the figure is < 100 nM. As for `Cc1ccc(NC(=O)Nc2cc(C(C)(C)C)sc2C(=O)N2CCN(C(C)C)C(=O)C2(C)C)cc1-c1ccc(CN2CCOCC2)nc1` [1-(5-tert-butyl-2-(4-isopropyl-2,2-dimethyl-3-oxopiperazine-1-carbonyl)thiophen-3-yl)-3-(4-methyl-3-(6-(morpholinomethyl)pyridin-3-yl)phenyl)urea], the figure is < 100 nM; as for `Cc1ccc(NC(=O)Nc2cc(C(C)(C)C)sc2C(=O)N2CCN(C)C(=O)C2)cc1-c1ccc(CN2CCOCC2)nc1` [1-(5-tert-butyl-2-(4-methyl-3-oxopiperazine-1-carbonyl)thiophen-3-yl)-3-(4-methyl-3-(6-(morpholinomethyl)pyridin-3-yl)phenyl)urea], < 100 nM. As for `COc1ccc(-c2cc(NC(=O)Nc3sc(C(C)(C)C)cc3C(=O)N3CCN(C)C(=O)C3(C)C)c(F)cc2C)cn1` [1-(5-tert-butyl-3-(2,2,4-trimethyl-3-oxopiperazine-1-carbonyl)thiophen-2-yl)-3-(2-fluoro-5-(6-methoxypyridin-3-yl)-4-methylphenyl)urea], the half-maximal inhibitory concentration (IC50) is < 100 nM.

Turning to `Cc1ccc(NC(=O)Nc2sc(C(C)(C)C)cc2C(=O)N2CCN(C)C(=O)C2(C)C)cc1-c1cnc(NCC(O)CO)nc1` (centres unmarked) [1-(5-tert-butyl-3-(2,2,4-trimethyl-3-oxopiperazine-1-carbonyl)thiophen-2-yl)-3-(3-(2-(2,3-dihydroxypropylamino)pyrimidin-5-yl)-4-methylphenyl)urea], the concentration for half-maximal inhibition (IC50) was < 100 nM. Consider `CCc1ccc(-c2cc(NC(=O)Nc3sc(C(C)(C)C)cc3C(=O)N3CCN(C)C(=O)C3(C)C)ccc2C)nc1` [1-(5-tert-butyl-3-(2,2,4-trimethyl-3-oxopiperazine-1-carbonyl)thiophen-2-yl)-3-(3-(5-ethylpyridin-2-yl)-4-methylphenyl)urea], for which the concentration for half-maximal inhibition (IC50) is < 100 nM. The same measure for `Cc1ccc(NC(=O)Nc2sc(C(C)(C)C)cc2C(=O)N2CCN(C)C(=O)C2(C)C)cc1-c1ccc(C(C)O)nc1` (centres unmarked) [1-(5-tert-butyl-3-(2,2,4-trimethyl-3-oxopiperazine-1-carbonyl)thiophen-2-yl)-3-(3-(6-(1-hydroxyethyl)pyridin-3-yl)-4-methylphenyl)urea]: < 100 nM; for `Cc1ccc(NC(=O)Nc2sc(C(C)(C)C)cc2C(=O)N2CCN(C)C(=O)C2(C)C)cc1-c1ccc(C(C)(C)O)nc1` [1-(5-tert-butyl-3-(2,2,4-trimethyl-3-oxopiperazine-1-carbonyl)thiophen-2-yl)-3-(3-(6-(2-hydroxypropan-2-yl)pyridin-3-yl)-4-methylphenyl)urea]: < 100 nM; for `COCCOc1ccc(-c2cc(NC(=O)Nc3sc(C(C)(C)C)cc3C(=O)N3CCN(C)C(=O)C3(C)C)ccc2C)cn1` [1-(5-tert-butyl-3-(2,2,4-trimethyl-3-oxopiperazine-1-carbonyl)thiophen-2-yl)-3-(3-(6-(2-methoxyethoxy)pyridin-3-yl)-4-methylphenyl)urea]: < 100 nM. As for `CCN(CC)Cc1ccc(-c2cc(NC(=O)Nc3sc(C(C)(C)C)cc3C(=O)N3CCN(C)C(=O)C3(C)C)ccc2C)cn1` [1-(5-tert-butyl-3-(2,2,4-trimethyl-3-oxopiperazine-1-carbonyl)thiophen-2-yl)-3-(3-(6-((diethylamino)methyl)pyridin-3-yl)-4-methylphenyl)urea], the IC50 is < 100 nM. As for `CCOc1ccc(-c2cc(NC(=O)Nc3sc(C(C)(C)C)cc3C(=O)N3CCN(C)C(=O)C3(C)C)ccc2C)cn1` [1-(5-tert-butyl-3-(2,2,4-trimethyl-3-oxopiperazine-1-carbonyl)thiophen-2-yl)-3-(3-(6-ethoxypyridin-3-yl)-4-methylphenyl)urea], the IC50 is < 100 nM. The same measure for `CCc1ccc(-c2cc(NC(=O)Nc3sc(C(C)(C)C)cc3C(=O)N3CCN(C)C(=O)C3(C)C)ccc2C)cn1` [1-(5-tert-butyl-3-(2,2,4-trimethyl-3-oxopiperazine-1-carbonyl)thiophen-2-yl)-3-(3-(6-ethylpyridin-3-yl)-4-methylphenyl)urea]: < 100 nM.
